Measured values from ChEMBL document CHEMBL5346904 (Eur J Med Chem, 2023).
≈ marks a conversion by molar mass, not a printed value.

Assays:
[1] = system: Staphylococcus aureus; experiment: Antimicrobial activity against Staphylococcus aureus ATCC 9144 assessed as inhibition of bacterial growth incubated for 48 hrs by CLSI based broth microdilution method; assay type: functional
[2] = system: Bacillus subtilis; experiment: Antimicrobial activity against Bacillus subtilis 168 assessed as inhibition of bacterial growth incubated for 48 hrs by CLSI based broth microdilution method; assay type: functional
[3] = system: Escherichia coli; experiment: Antimicrobial activity against Escherichia coli ATCC 25922 assessed as inhibition of bacterial growth incubated for 48 hrs by CLSI based broth microdilution method; assay type: functional
[4] = system: Pseudomonas aeruginosa; experiment: Antimicrobial activity against Pseudomonas aeruginosa ATCC 27853 assessed as inhibition of bacterial growth incubated for 48 hrs by CLSI based broth microdilution method; assay type: functional
[5] = Hemolytic activity in human RBC assessed as hemolysis incubated for 1 hr by absorbance based microplate reader analysis; assay type: toxicity, cell-based, Erythrocyte; settings: human red blood cells (erythrocytes)
[6] = Selectivity index, ratio of EC50 for hemolytic activity in human RBC assessed as hemolysis to MIC for antimicrobial activity against Staphylococcus aureus ATCC 9144 assessed as inhibition of bacterial growth; assay type: toxicity; settings: human red blood cells (erythrocytes), read-out: Selectivity Index
[7] = Selectivity index, ratio of EC50 for hemolytic activity in human RBC assessed as hemolysis to MIC for antimicrobial activity against Bacillus subtilis 168 assessed as inhibition of bacterial growth; assay type: toxicity; settings: human red blood cells (erythrocytes), read-out: Selectivity Index
[8] = Selectivity index, ratio of EC50 for hemolytic activity in human RBC assessed as hemolysis to MIC for antimicrobial activity against Escherichia coli ATCC 25922 assessed as inhibition of bacterial growth; assay type: toxicity; settings: human red blood cells (erythrocytes), read-out: Selectivity Index
[9] = Selectivity index, ratio of EC50 for hemolytic activity in human RBC assessed as hemolysis to MIC for antimicrobial activity against Pseudomonas aeruginosa ATCC 27853 assessed as inhibition of bacterial growth; assay type: toxicity; settings: human red blood cells (erythrocytes), read-out: Selectivity Index

SMILES | MIC [1] | MIC [2] | MIC [3] | MIC [4] | EC50 at 1 h [5] | selectivity ratio [6] | selectivity ratio [7] | selectivity ratio [8] | selectivity ratio [9]
NCCCn1c(Cc2cc(Br)cc(Br)c2)c(Cc2cc(Br)cc(Br)c2)n(CCCN)c1=O.O=C(O)C(F)(F)F.O=C(O)C(F)(F)F | 2 µg/mL | 1 µg/mL | 4 µg/mL | 8 µg/mL | 52 µg/mL | – | – | – | –
N=C(N)NCCCN1C(=O)N(CCCNC(=N)N)C(Cc2cc(C(F)(F)F)cc(C(F)(F)F)c2)(Cc2cc(C(F)(F)F)cc(C(F)(F)F)c2)C1=O | 4 µg/mL (≈ 5.33 µM) | 2 µg/mL (≈ 2.66 µM) | 32 µg/mL (≈ 42.6 µM) | 32 µg/mL (≈ 42.6 µM) | > 489 µg/mL | > 122 | > 245 | – | –
N=C(N)NCCCN1C(=O)N(CCCNC(=N)N)C(Cc2ccccc2)(Cc2ccccc2)C1=O.O=C(O)C(F)(F)F.O=C(O)C(F)(F)F | 64 µg/mL | 128 µg/mL | > 256 µg/mL | > 256 µg/mL | > 353 µg/mL | – | – | – | –
NCCCN1C(=O)N(CCCN)C(Cc2cc(C(F)(F)F)cc(C(F)(F)F)c2)(Cc2cc(C(F)(F)F)cc(C(F)(F)F)c2)C1=O.O=C(O)C(F)(F)F.O=C(O)C(F)(F)F | 16 µg/mL | 8 µg/mL | 16 µg/mL | 16 µg/mL | 399 µg/mL | 25 | 50 | 25 | 25
NCCCCN1C(=O)N(CCCCN)C(Cc2cc(Br)cc(Br)c2)(Cc2cc(Br)cc(Br)c2)C1=O.O=C(O)C(F)(F)F.O=C(O)C(F)(F)F | 8 µg/mL | 2 µg/mL | 32 µg/mL | 32 µg/mL | 364 µg/mL | – | – | – | –
N=C(N)NCCCCN1C(=O)N(CCCCNC(=N)N)C(Cc2cc(C(F)(F)F)cc(C(F)(F)F)c2)(Cc2cc(C(F)(F)F)cc(C(F)(F)F)c2)C1=O.O=C(O)C(F)(F)F.O=C(O)C(F)(F)F | 2 µg/mL | 2 µg/mL | 8 µg/mL | 32 µg/mL | 384 µg/mL | 192 | 192 | 48 | –
N=C(N)NCCCN1C(=O)N(CCCNC(=N)N)C(Cc2ccc(Br)c3ccccc23)(Cc2ccc(Br)c3ccccc23)C1=O.O=C(O)C(F)(F)F.O=C(O)C(F)(F)F | 2 µg/mL | 2 µg/mL | 8 µg/mL | 32 µg/mL | 206 µg/mL | 103 | 103 | 26 | –
NCCCN1C(=O)N(CCCN)C(=O)C(Cc2cc(Br)cc(Br)c2)(Cc2cc(Br)cc(Br)c2)C1=O.O=C(O)C(F)(F)F.O=C(O)C(F)(F)F | 4 µg/mL | 4 µg/mL | 8 µg/mL | 8 µg/mL | – | – | – | – | –
NCCCN1C(=O)N(CCCN)C(Cc2ccccc2)(Cc2ccccc2)C1=O.O=C(O)C(F)(F)F.O=C(O)C(F)(F)F | > 256 µg/mL | 256 µg/mL | > 256 µg/mL | > 256 µg/mL | > 311 µg/mL | – | – | – | –
NCCCN1C(=O)N(CCCN)C(Cc2ccc(Br)c(Cl)c2)(Cc2ccc(Br)c(Cl)c2)C1=O.O=C(O)C(F)(F)F.O=C(O)C(F)(F)F | 8 µg/mL | 4 µg/mL | 32 µg/mL | 32 µg/mL | 368 µg/mL | – | – | – | –
N=C(N)NCCCCN1C(=O)N(CCCCNC(=N)N)C(Cc2ccc(C(F)(F)F)cc2)(Cc2ccc(C(F)(F)F)cc2)C1=O.O=C(O)C(F)(F)F.O=C(O)C(F)(F)F | 4 µg/mL | 4 µg/mL | 64 µg/mL | > 128 µg/mL | > 503 µg/mL | – | – | – | –
NCCCN1C(=O)N(CCCN)C(Cc2ccc(C(F)(F)F)cc2)(Cc2ccc(C(F)(F)F)cc2)C1=O.O=C(O)C(F)(F)F.O=C(O)C(F)(F)F | 64 µg/mL | 16 µg/mL | 256 µg/mL | > 256 µg/mL | > 379 µg/mL | – | – | – | –
NCCCCN1C(=O)N(CCCCN)C(Cc2cc(C(F)(F)F)cc(C(F)(F)F)c2)(Cc2cc(C(F)(F)F)cc(C(F)(F)F)c2)C1=O.O=C(O)C(F)(F)F.O=C(O)C(F)(F)F | 16 µg/mL | 4 µg/mL | 64 µg/mL | 64 µg/mL | > 461 µg/mL | – | – | – | –
N=C(N)NCCCN1C(=O)N(CCCNC(=N)N)C(Cc2ccc(Br)c(Cl)c2)(Cc2ccc(Br)c(Cl)c2)C1=O | 2 µg/mL (≈ 2.84 µM) | 2 µg/mL (≈ 2.84 µM) | 32 µg/mL (≈ 45.4 µM) | 64 µg/mL (≈ 90.7 µM) | > 467 µg/mL | > 234 | > 234 | – | –
NCCCOc1nc(Cc2cc(Br)cc(Br)c2)c(Cc2cc(Br)cc(Br)c2)n1CCCN.O=C(O)C(F)(F)F.O=C(O)C(F)(F)F | 2 µg/mL | 2 µg/mL | 4 µg/mL | 4 µg/mL | 44 µg/mL | – | – | – | –
NCCCN1C(=S)N(CCCN)C(Cc2cc(Br)cc(Br)c2)(Cc2cc(Br)cc(Br)c2)C1=S.O=C(O)C(F)(F)F.O=C(O)C(F)(F)F | 8 µg/mL | 8 µg/mL | 16 µg/mL | 32 µg/mL | 385 µg/mL | – | – | – | –
N=C(N)NCCCCN1C(=O)N(CCCCNC(=N)N)C(Cc2cc(Br)cc(Br)c2)(Cc2cc(Br)cc(Br)c2)C1=O.O=C(O)C(F)(F)F.O=C(O)C(F)(F)F | 1 µg/mL | 1 µg/mL | 4 µg/mL | 16 µg/mL | 206 µg/mL | 206 | 206 | 52 | 13
NCCCCN1C(=O)N(CCCCN)C(Cc2ccc(Br)c(Cl)c2)(Cc2ccc(Br)c(Cl)c2)C1=O.O=C(O)C(F)(F)F.O=C(O)C(F)(F)F | 8 µg/mL | 4 µg/mL | 64 µg/mL | 64 µg/mL | > 439 µg/mL | > 55 | > 110 | – | –
NCCCN1C(=O)N(CCCN)C(Cc2cc(Br)cc(Br)c2)(Cc2cc(Br)cc(Br)c2)C1=O.O=C(O)C(F)(F)F.O=C(O)C(F)(F)F | 8 µg/mL | 4 µg/mL | 16 µg/mL | 8 µg/mL | 344 µg/mL | 43 | 86 | 22 | 43
NCCCCN1C(=O)N(CCCCN)C(Cc2ccc(C(F)(F)F)cc2)(Cc2ccc(C(F)(F)F)cc2)C1=O.O=C(O)C(F)(F)F.O=C(O)C(F)(F)F | 64 µg/mL | 16 µg/mL | > 128 µg/mL | > 128 µg/mL | > 393 µg/mL | – | – | – | –
N=C(N)NCCCN1C(=O)N(CCCNC(=N)N)C(Cc2ccc(C(F)(F)F)cc2)(Cc2ccc(C(F)(F)F)cc2)C1=O.O=C(O)C(F)(F)F.O=C(O)C(F)(F)F | 16 µg/mL | 8 µg/mL | 128 µg/mL | > 256 µg/mL | > 421 µg/mL | – | – | – | –
NCCCN1C(=O)N(CCCN)C(Cc2ccc(Br)c3ccccc23)(Cc2ccc(Br)c3ccccc23)C1=O.O=C(O)C(F)(F)F.O=C(O)C(F)(F)F | 4 µg/mL | 4 µg/mL | 8 µg/mL | 8 µg/mL | 69 µg/mL | – | – | – | –
N=C(N)NCCCN1C(=O)N(CCCNC(=N)N)C(Cc2cc(Br)cc(Br)c2)(Cc2cc(Br)cc(Br)c2)C1=O.O=C(O)C(F)(F)F.O=C(O)C(F)(F)F | 2 µg/mL | 4 µg/mL | 16 µg/mL | 32 µg/mL | 486 µg/mL | 243 | 122 | 30 | –
